The numbers were not newly measured in patent US20240127967A1, which cites them from elsewhere.

SMILES strings stand for the structures.

The data set has as its system MARV. The note with it: mouse, in vivo; cited from earlier work.

With `CC(C)COCC(CN(Cc1ccccc1)c1ccccc1)N1CCCC1` (stereo not shown) [Bepridil], the protection of mice result is listed as “strongly protected”.
